Laboratory results as given in BindingDB's records for doi:10.1021/jm1009154 (University of Copenhagen, 2010).

The compounds below were run against Excitatory amino acid transporter 1 (Homo sapiens, UniProt P43003) (assay: Inhibition of human EAAT1 expressed in HEK293 cells by [3H]D-Asp uptake assay).
Sequence of Excitatory amino acid transporter 1 (P43003 whole entry): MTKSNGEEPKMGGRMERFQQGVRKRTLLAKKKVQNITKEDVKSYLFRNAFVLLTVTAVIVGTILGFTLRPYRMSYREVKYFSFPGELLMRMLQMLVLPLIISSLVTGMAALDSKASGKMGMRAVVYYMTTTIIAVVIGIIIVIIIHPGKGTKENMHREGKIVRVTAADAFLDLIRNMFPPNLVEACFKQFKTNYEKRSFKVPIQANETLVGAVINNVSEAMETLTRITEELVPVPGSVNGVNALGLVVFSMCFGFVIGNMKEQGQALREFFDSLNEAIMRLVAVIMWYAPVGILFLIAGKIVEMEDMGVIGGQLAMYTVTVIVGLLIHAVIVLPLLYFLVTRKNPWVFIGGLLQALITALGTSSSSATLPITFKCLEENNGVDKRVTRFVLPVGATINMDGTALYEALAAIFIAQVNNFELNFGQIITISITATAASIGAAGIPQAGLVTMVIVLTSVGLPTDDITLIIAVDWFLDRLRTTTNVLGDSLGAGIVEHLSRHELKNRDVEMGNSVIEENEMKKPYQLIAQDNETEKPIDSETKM
With `N=C1CC(c2ccccc2)C2=C(CC(c3ccccc3)CC2=O)O1` (stereo not drawn) [2-Amino-4,7-diphenyl-7,8-dihydro-4H-chromen-5(6H)-one] the IC50 was > 100 µM.
For `N#CC1C(=N)OC2=C(C(=O)O[C@H](c3ccccc3)C2)[C@@H]1c1ccccc1` (relative stereo) [anti-2-Amino-5-oxo-4,7-diphenyl-4,5,7,8-tetrahydropyrano[4,3-b]-pyran-3-carbonitril], the IC50 was > 300 µM.
In the case of `N#CC1C(=N)OC2=C(C(=O)N[C@H](c3ccccc3)C2)[C@@H]1c1ccccc1` (relative stereo) [anti-2-Amino-5-oxo-4,7-diphenyl-5,6,7,8-tetrahydro-4H-pyrano-[3,2-c]pyridine-3-carbonitrile], the IC50 is reported as > 316 µM.
`N#CC1C(=N)OC2=C(C(=O)N[C@@H](c3ccccc3)C2)[C@@H]1c1ccccc1` (relative stereo) [syn-2-amino-5-oxo-4,7-diphenyl-5,6,7,8-tetrahydro-4H-pyrano[3,2-c]pyridine-3-carbonitrile] was tested, and the IC50 was > 300 µM.
`N=C1OC2=C(C(=O)CC(c3ccccc3)C2)C(c2ccccc2)C1C(N)=O` (stereo not drawn) [2-Amino-5-oxo-4,7-diphenyl-5,6,7,8-tetrahydro-4H-chromene-3-carboxamide] was tested, and the IC50 was > 100 µM.
For `N#CC1C(=N)OC2=C(C(=O)O[C@@H](c3ccccc3)C2)[C@@H]1c1ccccc1` (relative stereo) [syn-2-Amino-5-oxo-4,7-diphenyl-4,5,7,8-tetrahydropyrano[4,3-b]-pyran-3-carbonitrile], the IC50 was > 300 µM.
With `COC(=O)C1C(=N)OC2=C(C(=O)CC(c3ccccc3)C2)C1c1ccccc1` (stereo not drawn) [Methyl2-Amino-5-oxo-4,7-diphenyl-5,6,7,8-tetrahydro-4Hchromene-3-carboxylate] the IC50 was > 300 µM.
`CC1CC(=O)C2=C(C1)OC(=N)C(C#N)C2c1ccc2c(c1)OCO2` (stereo not drawn) [2-amino-4-(benzo[d][1,3]dioxol-5-yl)-7-methyl-5-oxo-5,6,7,8-tetrahydro-4H-chromene-3-carbonitrile] was tested, and the IC50 was > 316 µM.
